Laboratory results as given in ChEMBL document CHEMBL1154811, “Dehydroconicasterol and aurantoic acid, a chlorinated polyene derivative, from the Indonesian sponge Theonella swinhoei” (J Nat Prod, 2009).

Columns and labels:
Type in all cases: functional, cell-based
HeLa = assay: Cytotoxicity against human HeLa cells
C6 = assay: Cytotoxicity against rat C6 cells
H9c2 = assay: Cytotoxicity against rat H9c2 cells

Measured: IC50

C/C(Cl)=C/C=C/C=C/C=C/C=C/C(=O)O [AURANTOIC ACID]
> 70 µM: HeLa | C6 | H9c2

C/C(Cl)=C/C=C/C=C/C=C/C=C/C(O)=C1\C(=O)[C@H](CC(N)=O)N([C@@H]2OC[C@@H](O)[C@H](O)[C@H]2O)C1=O [AURANTOSIDE G]
> 70 µM: HeLa | C6 | H9c2

C=C1C2CCC3=C4CC[C@H]([C@H](C)CC[C@@H](C)C(C)C)[C@@]4(C)CC[C@@H]3[C@@]2(C)CC[C@@H]1O (stereo not given in full) [CONICASTEROL]
> 70 µM: HeLa | C6 | H9c2

C=C(CC[C@@H](C)[C@H]1CCC2=C3CCC4C(=C)[C@@H](O)CC[C@]4(C)[C@H]3CC[C@@]21C)C(C)C (stereo not given in full) [DEHYDROCONICASTEROL]
> 70 µM: HeLa | C6 | H9c2

C=C1C2CCC3=C4CC[C@H]([C@H](C)CC[C@H](CC)C(C)C)[C@@]4(C)CC[C@@H]3[C@@]2(C)CC[C@@H]1O (stereo not given in full) [THEONELLASTEROL]
> 70 µM: HeLa | C6 | H9c2
